Laboratory results reported in patent US20080114168A1, “Novel esters as useful broad spectrum herbicidal compounds” (priority 2004, published 2008).

Columns and labels:
broad leaved weeds = test: herbicidal activity against broad leaved weeds, applied in aqueous solution; assay type: in vivo; details: applied in an aqueous solution at 500-2000 ppm
[1] = test system: glufosinate-resistant corn; test: crop selectivity; assay type: in vivo; details: aqueous solution at 500-2000 ppm
grasses = test: herbicidal activity against grasses, applied in aqueous solution; assay type: in vivo; details: applied in an aqueous solution at 500-2000 ppm
[2] = general herbicidal character (selective or non-selective); details: in vivo

SMILES | herbicidal activity against broad leaved weeds (broad leaved weeds) | selectivity to crop [1] | herbicidal activity against grasses (grasses) | herbicide selectivity (general) [2]
CP(=O)(O)CCC(N)C(=O)Oc1cc(Cl)nnc1-c1ccccc1 (racemic) [Example 1, 6-chloro-3-phenylpyridazin-4-yl 4-[hydroxyl(methyl)phosphinoyl]-DL-alaninate] | active | selective | active | –
CP(=O)(O)CCC(N)C(=O)Oc1c(Cl)cnc(Cl)c1Cl (racemic) [Example 2] | active | – | active | powerful non-selective herbicide
